Experimental findings from patent publication US20140357655A1, “SPIROINDOLINE DERIVATIVES AS GONADOTROPIN- RELEASING HORMONE RECEPTOR ANTAGONISTS” (Bayer Intellectual Property GmbH, priority 2012, published 2014) are described below.

A value given as a limit tells only on which side of the number the result lay.

In the assay the target is T1, human GnRH receptor (Homo sapiens, UniProt P30968).
T1 sequence (P30968 1-328): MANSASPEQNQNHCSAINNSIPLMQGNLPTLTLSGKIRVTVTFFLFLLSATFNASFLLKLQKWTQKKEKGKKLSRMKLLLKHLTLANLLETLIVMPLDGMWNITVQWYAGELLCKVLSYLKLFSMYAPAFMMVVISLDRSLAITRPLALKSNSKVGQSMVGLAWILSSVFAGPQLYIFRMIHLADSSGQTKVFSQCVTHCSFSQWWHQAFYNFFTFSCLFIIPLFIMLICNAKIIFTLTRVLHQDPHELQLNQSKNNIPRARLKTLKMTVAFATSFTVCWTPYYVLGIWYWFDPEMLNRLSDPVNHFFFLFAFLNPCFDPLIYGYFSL
In words: IP-One HTRF assay with buserelin (at EC80) stimulation. The following applies: CHO cells stably expressing human GnRH receptor, read-out: Potency in IP-One HTRF assay, given as IC50. Type of assay: cell-based. The method, boiled down: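 CHO cells stably expressing human GnRH receptor, preincubated 1 h at 37° C with IP1-d2, were exposed to compound and buserelin at EC80 for 1 h at 37° C. After lysis with Tb-anti-IP1 antibody (1 h, 22° C), 665/620 nm HTRF ratio read; 10 concentrations, 20 μM–1 nM, duplicates, 4-parameter IC50.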
In general terms: Time-resolved FRET reads energy transfer from a long-lived donor to a nearby acceptor.
Turning to `CC(C)(NC(=O)c1ccc2c(c1)C1(CCS(=O)(=O)CC1)C(C1CC1)N2S(=O)(=O)c1ccc(F)cc1)c1ccc(F)cc1` (stereo not drawn) [Example 20, 2-cyclopropyl-N-(4-fluoro-α,α-dimethylbenzyl)-1-[(4-fluorophenyl)sulfonyl]-1,2,2′,3′,5′,6′-hexahydrospiro[indole-3,4′-thiopyran]-5-carboxamide 1′,1′-dioxide], the IC50 was 0.346 µM.

In the case of `O=C(NC1(c2ccccc2Cl)CC1)c1ccc2c(c1)C1(CCS(=O)(=O)CC1)C(C1CC1)N2S(=O)(=O)c1ccc(F)cc1` (centres unmarked) [Example 21, N-[1-(2-chlorophenyl)cyclopropyl]-2-cyclopropyl-1-[(4-fluorophenyl)sulfonyl]-1,2,2′,3′,5′,6′-hexahydrospiro[indole-3,4′-thiopyran]-5-carboxamide 1′,1′-dioxide], the IC50 turned out to be 3.04 µM.

For the compound `O=C(NCc1ccccn1)c1ccc2c(c1)C1(CCS(=O)(=O)CC1)C(C1CC1)N2S(=O)(=O)c1ccc(F)cc1` (centres unmarked) [Example 22, 2-cyclopropyl-1-[(4-fluorophenyl)sulfonyl]-N-(2-pyridylmethyl)-1,2,2′,3′,5′,6′-hexahydrospiro[indole-3,4′-thiopyran]-5-carboxamide 1′,1′-dioxide], the IC50 was 1.48 µM. In the case of `CS(=O)(=O)c1cccc(NC(=O)c2ccc3c(c2)C2(CCS(=O)(=O)CC2)C(C2CC2)N3S(=O)(=O)c2ccc(F)cc2)c1` (centres unmarked) [Example 23, 2-cyclopropyl-1-[(4-fluorophenyl)sulfonyl]-N-(3-mesylphenyl)-1,2,2′,3′,5′,6′-hexahydrospiro[indole-3,4′-thiopyran]-5-carboxamide 1′,1′-dioxide] it was 0.328 µM. For the compound `O=C(NCCc1ccccc1Cl)c1ccc2c(c1)C1(CCS(=O)(=O)CC1)C(C1CC1)N2S(=O)(=O)c1ccc(F)cc1` (centres unmarked) [Example 25, N-[2-(2-chlorophenyl)ethyl]-2-cyclopropyl-1-[(4-fluorophenyl)sulfonyl]-1,2,2′,3′,5′,6′-hexahydrospiro[indole-3,4′-thiopyran]-5-carboxamide 1′,1′-dioxide], the IC50 is 2.62 µM. In the case of `CC1N(S(=O)(=O)c2ccc(F)cc2)c2ccc(C(=O)NCc3ncccc3Cl)cc2C12CCS(=O)(=O)CC2` (centres unmarked) [Example 26, N-[(3-chloropyridin-2-yl)methyl]-1-[(4-fluorophenyl)sulfonyl]-2-methyl-1,2,2′,3′,5′,6′-hexahydrospiro[indole-3,4′-thiopyran]-5-carboxamide 1′,1′-dioxide] it was 0.646 µM; in that of `CC1N(S(=O)(=O)c2ccc(F)cc2)c2ccc(C(=O)NC(C)(C)c3ccc(F)cc3Cl)cc2C12CCS(=O)(=O)CC2` (stereo not drawn) [Example 27, N-(2-chloro-4-fluoro-α,α-dimethylbenzyl)-1-[(4-fluorophenyl)sulfonyl]-2-methyl-1,2,2′,3′,5′,6′-hexahydrospiro[indole-3,4′-thiopyran]-5-carboxamide 1′,1′-dioxide], 9.02 µM. In the case of `CC1N(S(=O)(=O)c2ccc(F)cc2)c2ccc(C(=O)NCc3ncc(F)cc3Cl)cc2C12CCS(=O)(=O)CC2` (centres unmarked) [Example 28, N-[(3-chloro-5-fluoropyridin-2-yl)methyl]-1-[(4-fluorophenyl)sulfonyl]-2-methyl-1,2,2′,3′,5′,6′-hexahydrospiro[indole-3,4′-thiopyran]-5-carboxamide 1′,1′-dioxide], the IC50 turned out to be 0.405 µM.

With `Cc1ccc(NC(=O)c2ccc3c(c2)C2(CCS(=O)(=O)CC2)C(C2CC2)N3S(=O)(=O)c2ccc(F)cc2)nc1` (centres unmarked) [Example 29, 2-cyclopropyl-1-[(4-fluorophenyl)sulfonyl]-N-(5-methylpyridin-2-yl)-1,2,2′,3′,5′,6′-hexahydrospiro[indole-3,4′-thiopyran]-5-carboxamide 1′,1′-dioxide], the IC50 is more than 20 µM. For the compound `NS(=O)(=O)c1cccc(NC(=O)c2ccc3c(c2)C2(CCS(=O)(=O)CC2)C(C2CC2)N3S(=O)(=O)c2ccc(F)cc2)c1` (centres unmarked) [Example 30, 2-cyclopropyl-1-[(4-fluorophenyl)sulfonyl]-N-(3-sulfamoylphenyl)-1,2,2′,3′,5′,6′-hexahydrospiro[indole-3,4′-thiopyran]-5-carboxamide 1′,1′-dioxide], the IC50 was 0.245 µM.

`Cc1cccnc1CNC(=O)c1ccc2c(c1)C1(CCS(=O)(=O)CC1)C(C1CC1)N2S(=O)(=O)c1ccc(F)cc1` (centres unmarked) [Example 31, 2-cyclopropyl-1-[(4-fluorophenyl)sulfonyl]-N-[(3-methylpyridin-2-yl)methyl]-1,2,2′,3′,5′,6′-hexahydrospiro[indole-3,4′-thiopyran]-5-carboxamide 1′,1′-dioxide]: the IC50 was found to be 0.503 µM. Consider `O=C(NCc1ccccc1C(F)(F)F)c1ccc2c(c1)C1(CCS(=O)(=O)CC1)C(C1CC1)N2S(=O)(=O)c1ccc(F)cc1` (centres unmarked) [Example 32, 2-cyclopropyl-1-[(4-fluorophenyl)sulfonyl]-N-[2-(trifluoromethyl)benzyl]-1,2,2′,3′,5′,6′-hexahydrospiro[indole-3,4′-thiopyran]-5-carboxamide 1′,1′-dioxide], for which the IC50 worked out at 0.058 µM. `O=C(NC1CCOc2ccccc21)c1ccc2c(c1)C1(CCS(=O)(=O)CC1)C(C1CC1)N2S(=O)(=O)c1ccc(F)cc1` (centres unmarked) [Example 33, 2-cyclopropyl-N-(3,4-dihydro-2H-chromen-4-yl)-1-[(4-fluorophenyl)sulfonyl]-1,2,2′,3′,5′,6′-hexahydrospiro[indole-3,4′-thiopyran]-5-carboxamide 1′,1′-dioxide]: the IC50 amounted to 0.958 µM. In the case of `COC(=O)c1cccc(NC(=O)c2ccc3c(c2)C2(CCS(=O)(=O)CC2)C(C2CC2)N3S(=O)(=O)c2ccc(F)cc2)c1` (centres unmarked) [Example 34, methyl 3-[({2-cyclopropyl-1-[(4-fluorophenyl)sulfonyl]-1′,1′-dioxido-1,2,2′,3′,5′,6′-hexahydrospiro[indole-3,4′-thiopyran]-5-yl}carbonyl)amino]benzoate] it was 0.066 µM; in that of `O=C(NCC1CC1)c1ccc2c(c1)C1(CCS(=O)(=O)CC1)C(C1CC1)N2S(=O)(=O)c1ccc(F)cc1` (centres unmarked) [Example 35, 2-cyclopropyl-N-(cyclopropylmethyl)-1-[(4-fluorophenyl)sulfonyl]-1,2,2′,3′,5′,6′-hexahydrospiro[indole-3,4′-thiopyran]-5-carboxamide 1′,1′-dioxide], 0.627 µM; in that of `O=C(NCC1CCCCC1)c1ccc2c(c1)C1(CCS(=O)(=O)CC1)C(C1CC1)N2S(=O)(=O)c1ccc(F)cc1` (centres unmarked) [Example 36, N-(cyclohexylmethyl)-2-cyclopropyl-1-[(4-fluorophenyl)sulfonyl]-1,2,2′,3′,5′,6′-hexahydrospiro[indole-3,4′-thiopyran]-5-carboxamide 1′,1′-dioxide], 0.169 µM. In the case of `CN(C)S(=O)(=O)c1cccc(NC(=O)c2ccc3c(c2)C2(CCS(=O)(=O)CC2)C(C2CC2)N3S(=O)(=O)c2ccc(F)cc2)c1` (centres unmarked) [Example 37, 2-cyclopropyl-N-[3-(N,N-dimethylsulfamoyl)phenyl]-1-[(4-fluorophenyl)sulfonyl]-1,2,2′,3′,5′,6′-hexahydrospiro[indole-3,4′-thiopyran]-5-carboxamide 1′,1′-dioxide] it was 0.078 µM. Turning to `O=C(NCC1CCCC1)c1ccc2c(c1)C1(CCS(=O)(=O)CC1)C(C1CC1)N2S(=O)(=O)c1ccc(F)cc1` (centres unmarked) [Example 38, N-(cyclopentylmethyl)-2-cyclopropyl-1-[(4-fluorophenyl)sulfonyl]-1,2,2′,3′,5′,6′-hexahydrospiro[indole-3,4′-thiopyran]-5-carboxamide 1′,1′-dioxide], the IC50 stood at 0.136 µM.

Turning to `COc1cccc(S(=O)(=O)N2c3ccc(C(=O)NCc4ncccc4C(F)(F)F)cc3C3(CCS(=O)(=O)CC3)C2C2CC2)c1` (centres unmarked) [Example 39, 2-cyclopropyl-1-[(3-methoxyphenyl)sulfonyl]-N-{[3-(trifluoromethyl)pyridin-2-yl]methyl}-1,2,2′,3′,5′,6′-hexahydrospiro[indole-3,4′-thiopyran]-5-carboxamide 1′,1′-dioxide], the IC50 came to 0.053 µM. For the compound `COc1cccc(S(=O)(=O)N2c3ccc(C(=O)NCc4ccccc4C(F)(F)F)cc3C3(CCS(=O)(=O)CC3)C2C2CC2)c1` (centres unmarked) [Example 40, 2-cyclopropyl-1-[(3-methoxyphenyl)sulfonyl]-N-[2-(trifluoromethyl)benzyl]-1,2,2′,3′,5′,6′-hexahydrospiro[indole-3,4′-thiopyran]-5-carboxamide 1′,1′-dioxide], the concentration for half-maximal inhibition (IC50) was found to be 0.032 µM.

Take `COc1cccc(S(=O)(=O)N2c3ccc(C(=O)NCc4ncccc4Cl)cc3C3(CCS(=O)(=O)CC3)C2C2CC2)c1` (centres unmarked) [Example 41, N-[(3-chloropyridin-2-yl)methyl]-2-cyclopropyl-1-[(3-methoxyphenyl)sulfonyl]-1,2,2′,3′,5′,6′-hexahydrospiro[indole-3,4′-thiopyran]-5-carboxamide 1′,1′-dioxide]: the IC50 was 0.234 µM. In the case of `COc1cccc(S(=O)(=O)N2c3ccc(C(=O)Nc4cccc(S(N)(=O)=O)c4)cc3C3(CCS(=O)(=O)CC3)C2C2CC2)c1` (centres unmarked) [Example 42, 2-cyclopropyl-1-[(3-methoxyphenyl)sulfonyl]-N-(3-sulfamoylphenyl)-1,2,2′,3′,5′,6′-hexahydrospiro[indole-3,4′-thiopyran]-5-carboxamide 1′,1′-dioxide] it was 0.096 µM; in that of `COc1cccc(S(=O)(=O)N2c3ccc(C(=O)Nc4cccc(S(=O)(=O)N(C)C)c4)cc3C3(CCS(=O)(=O)CC3)C2C2CC2)c1` (centres unmarked) [Example 43, 2-cyclopropyl-N-[3-(N,N-dimethylsulfamoyl)phenyl]-1-[(3-methoxyphenyl)sulfonyl]-1,2,2′,3′,5′,6′-hexahydrospiro[indole-3,4′-thiopyran]-5-carboxamide 1′,1′-dioxide], 0.056 µM.

The term IC50 denotes the concentration needed to halve the response being measured.
